Test results reported in patent US9822099B2, “Triazole derivatives” (priority 2013, dated 2017).
Like-named read-outs stand apart in the source and are kept apart here. Marks after values point to notes of the source that are not given here.

Legend:
Puccinia recondita = experiment: Example B: in vivo preventive test on Puccinia recondita (brown rust on wheat); settings: wheat plants, preventive spray, evaluated 11 days after inoculation
Experimental: The young plants of wheat are treated by spraying the active ingredient prepared as described above. Control plants are treated only with an aqueous solution of acetone/Dimethyl sulfoxide/Tween®. After 24 hours, the plants are contaminated by spraying the leaves with an aqueous suspension of Puccinia recondita spores.

Septoria tritici = experiment: Example D: in vivo preventive test on Septoria tritici (leaf spot on wheat); settings: wheat plants, preventive spray, evaluated 24 days after inoculation
Experimental: The young plants of wheat are treated by spraying the active ingredient prepared as described above. Control plants are treated only with an aqueous solution of acetone/Dimethyl sulfoxide/Tween®. After 24 hours, the plants are contaminated by spraying the leaves with an aqueous suspension of Septoria tritici spores.

Sphaerotheca fuliginea = experiment: Example E: in vivo preventive test on Sphaerotheca fuliginea (powdery mildew on cucurbits); settings: gherkin plants, preventive spray, evaluated 15 days after inoculation
Experimental: The young plants of gherkin are treated by spraying the active ingredient prepared as described above. Control plants are treated only with an aqueous solution of acetone/Dimethyl sulfoxide/Tween®. After 24 hours, the plants are contaminated by spraying the leaves with an aqueous suspension of Sphaerotheca fuliginea spores.

Uromyces appendiculatus = experiment: Example F: in vivo preventive test on Uromyces appendiculatus (bean rust); settings: bean plants, preventive spray, evaluated 11 days after inoculation
Experimental: The young plants of bean are treated by spraying the active ingredient prepared as described above. Control plants are treated only with an aqueous solution of acetone/Dimethyl sulfoxide/Tween®. After 24 hours, the plants are contaminated by spraying the leaves with an aqueous suspension of Uromyces appendiculatus spores.

Botrytis cinerea = experiment: Example A: in vivo preventive test on Botrytis cinerea (grey mould); settings: gherkin plants, preventive spray, evaluated 4 to 5 days after inoculation
Experimental: The young plants of gherkin are treated by spraying the active ingredient prepared as described above. Control plants are treated only with an aqueous solution of acetone/Dimethyl sulfoxide/Tween®. After 24 hours, the plants are contaminated by spraying the leaves with an aqueous suspension of Botrytis cinerea spores.

Pyrenophora teres = experiment: Example C: in vivo preventive test on Pyrenophora teres (net blotch on barley); settings: barley plants, preventive spray, evaluated 14 days after inoculation
Experimental: The young plants of barley are treated by spraying the active ingredient prepared as described above. Control plants are treated only with an aqueous solution of acetone/Dimethyl sulfoxide/Tween®. After 24 hours, the plants are contaminated by spraying the leaves with an aqueous suspension of Pyrenophora teres spores.

| Compound | Eff. % (Puccinia recondita; 500 ppm of active ingredient) [%] | Eff. % (Septoria tritici; 500 ppm of active ingredient) [%] | Eff. % (Sphaerotheca fuliginea; 500 ppm of active ingredient) [%] | Eff. % (Uromyces appendiculatus; 500 ppm of active ingredient) [%] | LogP (pH 2.7) | Eff. % (Sphaerotheca fuliginea; 100 ppm of active ingredient) [%] | Eff. % (Uromyces appendiculatus; 100 ppm of active ingredient) [%] | also measured |
| --- | --- | --- | --- | --- | --- | --- | --- | --- |
| OC(Cc1ccnc(Cl)c1F)(Cn1cncn1)c1cccnc1Cl (stereo not shown) [Example I-59] | 98 | 100 | 100 | 100 | 1.54^[a] | – | – | – |
| OC(Cc1ncccc1Cl)(Cn1cncn1)C1(Cl)CC1 (stereo not shown) [Example I-2] | 94 | 100 | 95 | 100 | 2.28^[a] | – | – | Eff. % (Botrytis cinerea; 500 ppm of active ingredient): 94% |
| OC(Cc1ccncc1F)(Cn1cncn1)c1cccnc1Cl (stereo not shown) [Example I-23] | – | – | – | – | 0.91^[a] | 88 | 92 | – |
| OC(Cc1ccc(F)cc1)(Cc1ccncc1Cl)Cn1cncn1 (racemic) [Example I-75] | 81 | 100 | 100 | – | 1.93^[a] | – | – | – |
| OC(Cc1cc(Cl)ncc1F)(Cn1cncn1)C1(F)CC1 (stereo not shown) [Example I-41] | – | – | – | – | 1.66^[a] | 100 | 94 | – |
| OC(Cc1ccncc1Cl)(Cn1cncn1)c1cccnc1Cl (stereo not shown) [Example I-14] | – | – | – | – | 1.23^[a] | 100 | 87 | – |
| CC(CF)(CF)C(O)(Cc1cc(Cl)ncc1F)Cn1cncn1 (stereo not shown) [Example I-44] | – | – | – | – | 1.89^[a] | 100 | 94 | – |
| OC(Cc1cncc(Oc2ccc(Cl)cc2)n1)(Cn1cncn1)C1(Cl)CC1 (stereo not shown) [Example I-56] | 86 | 92 | 100 | 96 | 2.88^[a] | – | – | Eff. % (Pyrenophora teres; 500 ppm of active ingredient): 88% |
| OC(Cc1ccncc1F)(Cn1cncn1)c1ccc(Cl)nc1 (stereo not shown) [Example I-24] | – | – | – | – | 0.99^[a] | 94 | 92 | – |
| OC(Cc1ccc2ccccc2n1)(Cn1cncn1)C1(Cl)CC1 (stereo not shown) [Example I-1] | – | – | – | – | 1.64^[a] | – | 80 | Eff. % (Pyrenophora teres; 100 ppm of active ingredient): 83% |
| OC(Cc1ccncc1Cl)(Cn1cncn1)c1ccc2oc3ccccc3c2c1 (racemic) [Example I-80] | 88 | 100 | 100 | 99 | – | – | – | LogP (method [a]: LC-MS at pH 2.7, 0.1% formic acid in water / acetonitrile gradient): 2.40^[a] |
| Cc1cccc2cc(CC(O)(Cn3cncn3)C3(Cl)CC3)c(Cl)nc12 (racemic) [Example I-84] | 88 | – | – | 100 | 3.53^[a] | – | – | Eff. % (Septoria tritici; 100 ppm of active ingredient): 81% |
| CC(Oc1ccc(Cl)cc1)C(O)(Cc1cccnc1Cl)Cn1cncn1 (stereo not shown) [Example I-16] | – | – | – | – | – | 100 | 91 | Eff. % (Botrytis cinerea; 100 ppm of active ingredient): 87%; Eff. % (Puccinia recondita; 100 ppm of active ingredient): 75%; Eff. % (Septoria tritici; 100 ppm of active ingredient): 98% |
| OC(COc1ccc(F)cc1)(Cc1ccncc1Cl)Cn1cncn1 (racemic) [Example I-79] | 98 | 100 | 100 | 100 | 1.86^[a] | – | – | Eff. % (Botrytis cinerea; 500 ppm of active ingredient): 99% |
| OC(Cc1cccc(Cl)c1)(Cc1ccnc(Cl)c1F)Cn1cncn1 (racemic) [Example I-88] | 89 | 100 | 98 | – | 2.02^[a] | – | – | – |
| OC(Cc1cnccn1)(Cn1cncn1)C1(Cl)CC1 (stereo not shown) [Example I-11] | – | – | – | – | 1.13^[a] | 79 | 75 | – |

| Compound | Eff. % (Puccinia recondita; 500 ppm of active ingredient) [%] | Eff. % (Septoria tritici; 500 ppm of active ingredient) [%] | Eff. % (Sphaerotheca fuliginea; 500 ppm of active ingredient) [%] | Eff. % (Uromyces appendiculatus; 500 ppm of active ingredient) [%] | LogP (pH 2.7) | Eff. % (Sphaerotheca fuliginea; 100 ppm of active ingredient) [%] | Eff. % (Uromyces appendiculatus; 100 ppm of active ingredient) [%] | also measured |
| --- | --- | --- | --- | --- | --- | --- | --- | --- |
| Cc1cccc(CC(O)(Cn2cncn2)C2(Cl)CC2)n1 (stereo not shown) [Example I-48] | – | – | 83 | 81 | 0.52^[a] | – | – | – |
| OC(Cc1cc(Oc2ccc(Cl)cc2)nnc1Cl)(Cn1cncn1)C1(Cl)CC1 (stereo not shown) [Example I-55] | 79 | 100 | 100 | 98 | 3.08^[a] | – | – | – |
| Cc1cc(C(O)(Cc2ccncc2Cl)Cn2cncn2)nn1C (racemic) [Example I-66] | – | 92 | 80 | – | 0.84^[a] | – | – | – |
| OC(Cc1cccc(Cl)c1)(Cc1ccncc1Cl)Cn1cncn1 (stereo not shown) [Example I-15] | – | – | – | – | 2.27^[a] | 98 | – | Eff. % (Septoria tritici; 100 ppm of active ingredient): 94% |
| COc1nccnc1CC(O)(Cn1cncn1)C1(Cl)CC1 (racemic) [Example I-72] | – | 80 | 98 | 100 | 1.88^[a] | – | – | – |
| CC(C)(CCl)C(O)(Cc1ccncc1Cl)Cn1cncn1 (racemic) [Example I-90] | – | 78 | 100 | – | 1.76^[a] | – | – | Eff. % (Botrytis cinerea; 500 ppm of active ingredient): 100%; LogP (pH 7.8): 1.96^[b]; |
| OC(Cc1ccccc1F)(Cc1cc(Cl)ncc1F)Cn1cncn1 (racemic) [Example I-73] | – | 100 | 100 | – | 2.34^[a] | – | – | – |
| OC(Cc1cc(Cc2ccc(Cl)c(Cl)n2)cc(Cl)n1)(Cn1cncn1)C1(Cl)CC1 (stereo not shown) [Example I-32] | – | – | – | – | 3.58^[a] | – | – | Eff. % (Puccinia recondita; 100 ppm of active ingredient): 75% |
| OC(CCc1ccccc1Cl)(Cc1ccncc1Cl)Cn1cncn1 (racemic) [Example I-68] | 94 | 100 | 100 | 100 | 2.29^[a] | – | – | Eff. % (Pyrenophora teres; 500 ppm of active ingredient): 71% |
| OC(Cc1cc(Cl)cc(Cl)n1)(Cn1cncn1)C1(Cl)CC1 (stereo not shown) [Example I-17] | – | – | – | – | 2.76^[a] | 100 | 94 | Eff. % (Septoria tritici; 100 ppm of active ingredient): 97% |
| CC(C)(Oc1ccc(F)cc1)C(O)(Cc1ccncc1Cl)Cn1cncn1 (racemic) [Example I-91] | 89 | 100 | 98 | 97 | 2.48^[a] | – | – | Eff. % (Botrytis cinerea; 500 ppm of active ingredient): 95%; LogP (pH 7.8): 2.60^[b]; |
| OC(Cc1ccnc(Cl)c1F)(Cn1cncn1)C1(F)CC1 (racemic) [Example I-87] | 89 | 83 | 72 | 78 | 1.23^[a] | – | – | – |
| OC(Cc1ccncc1Cl)(Cn1cncn1)c1ccc(Cl)nc1 (stereo not shown) [Example I-13] | – | – | – | – | 1.26^[a] | 94 | 95 | – |
| OC(Cc1ccccc1F)(Cc1ccnc(Cl)c1F)Cn1cncn1 (racemic) [Example I-85] | – | 78 | 89 | – | 1.73^[a] | – | – | – |
| OC(Cc1ccccc1F)(Cc1cc(F)ncc1Cl)Cn1cncn1 (racemic) [Example I-64] | 83 | 97 | 100 | 94 | 2.46^[a] | – | – | – |
